Key:
Format in all cases: cell-based
[1] = molecular target: T1, CXCR4 (Homo sapiens, UniProt P61073); assay: Label-free response to SDF-1α on BIND READER; conditions: THP-1 cells, OEM cells, MSC cells; different concentrations
T1 construct: endogenous in cells; host or cells: THP-1 cells, 'OEM' cells, MSC cells
Text: SDF-1α binds to and activates CXCR4, a GPCR. Stem cells will move to tissues releasing gradients of SDF-1α. Damaged tissue releases elevated levels of SDF-1α resulting in increased migration of mesenchymal stem cells to sites of injury. Chemotactic factors induce significant changes in the actin cytoskeleton of cells upon receptor activation. These changes are manifested as directional movement when the chemokine is presented as a gradient. SDF-1α induces the migration of mesenchymal stem cells and osteoblast progenitor cells. Overexpression of CXCR4 results in improved MSC migration and homing to sites of vascular injury.

[2] = test system: Rat MSC cells; assay: Rat MSC movement on fibronectin-coated biosensor; conditions: attachment signal zeroed out
Method: Rat MSC cells were added to a biosensor coated with fibronectin. Cell attachment was detected on a colorimetric resonant reflectance biosensor at 3 hours and 16 hours. The attachment signal was zeroed out and the cells were stimulated with SDF-1α or were not stimulated. Movement of the cells can be seen in the right panels of FIG. 12. The darker spots are where the cells were prior to detection and the lighter spots are where the cells are when the reaction was detected. […] An enhanced signal can be seen on the cell edges where movement and/or cell adhesion is occurring. The enhanced signal correlates with the leading edge of the cells as they move across the biosensor as evidenced by time lapse imaging. This is consistent with extracellular matrix-integrin engagement of the cells. […] An approximately 7 to 10 fold improvement in signal to noise is observed.

[3] = molecular target: T2, M4 muscarinic receptor expressing cells (M4R) (Homo sapiens, UniProt P08173); assay: Label-free endpoint response on BIND Reader, M4R cells; conditions: for Endpoint response of M4R cells to ligand: first addition, 10uM carbachol or 50 nM ET-1, M4R cells plated alone
T2 sequence (P08173 1-479): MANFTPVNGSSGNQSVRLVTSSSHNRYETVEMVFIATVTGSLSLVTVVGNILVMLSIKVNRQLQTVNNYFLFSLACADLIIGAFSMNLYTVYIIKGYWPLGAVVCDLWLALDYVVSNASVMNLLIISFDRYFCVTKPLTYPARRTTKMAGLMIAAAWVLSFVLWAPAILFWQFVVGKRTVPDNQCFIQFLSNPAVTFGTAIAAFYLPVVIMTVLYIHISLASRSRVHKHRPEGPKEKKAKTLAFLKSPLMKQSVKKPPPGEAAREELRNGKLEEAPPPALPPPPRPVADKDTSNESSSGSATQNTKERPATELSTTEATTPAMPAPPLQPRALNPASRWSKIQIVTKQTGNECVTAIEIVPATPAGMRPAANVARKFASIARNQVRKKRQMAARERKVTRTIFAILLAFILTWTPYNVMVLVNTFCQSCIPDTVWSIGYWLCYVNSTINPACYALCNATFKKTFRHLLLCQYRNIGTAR
Method: (§1) The response of the two or more cell types to the stimuli or test reagent can be also detected by a BIND® READER (colorimetric resonant reflectance biosensor system). For example, Endothelin receptor expressing cells (ETaR) and M4 muscarinic receptor expressing cells (M4R) were plated on CA2 cellular matrix-coated colorimetric resonant reflectance biosensor plates in starvation media. The cells were pre-treated with antagonists (either atropine to inhibit M4 or BMS to inhibit ETaR) for 30 min. […] Data are referenced to buffer controls.
(§2) The ETaR cells and M4R cells were then treated with a second ligand.

[4] = test system: M5/RBL cells; assay: Label-free response of 1:1 mixed RBL and M5/RBL cells on BIND SCANNER; conditions: 1:1 mixed population of RBL+M5/RBL cells
Method: RBL and M5/RBL cells were mixed in a 1:1 ratio and were plated in colorimetric resonant reflectance biosensor wells. The cells were allowed to attach to the biosensor and the attachment reaction was detected on a BIND® SCANNER. Acetylcholine was added to the biosensor surface. […] Approximately 50% of a 1:1 mixed population of RBL+M5/RBL cells responded to acetylcholine. The responding cells can be gated and analyzed for quantitative responses (e.g., responses to additional test reagents or stimuli) independent of non-responding population. Therefore, the presence of different types of cells on a biosensor can be detected when their response to a ligand is known.

[5] = molecular target: T3, Endothelin receptor expressing cells (ETaR) (Homo sapiens, UniProt P25101); assay: Label-free endpoint response on BIND Reader, ETaR cells; conditions: first addition; 10uM carbachol or 50 nM ET-1; ETaR cells plated alone
T3 sequence (P25101 21-427): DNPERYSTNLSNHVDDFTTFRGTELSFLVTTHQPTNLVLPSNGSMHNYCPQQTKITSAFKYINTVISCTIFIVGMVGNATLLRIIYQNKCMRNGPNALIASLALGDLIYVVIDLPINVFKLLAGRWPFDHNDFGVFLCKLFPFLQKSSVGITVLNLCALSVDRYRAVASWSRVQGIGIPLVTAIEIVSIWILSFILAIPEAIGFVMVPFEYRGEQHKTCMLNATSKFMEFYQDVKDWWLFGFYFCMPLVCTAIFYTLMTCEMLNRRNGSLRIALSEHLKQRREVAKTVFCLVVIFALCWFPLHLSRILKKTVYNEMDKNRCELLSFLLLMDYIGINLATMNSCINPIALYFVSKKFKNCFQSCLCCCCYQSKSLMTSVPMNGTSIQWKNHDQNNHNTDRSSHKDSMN
Method: as §1, §2

[6] = molecular target: cells expressing α4/β1 integrin receptors (Homo sapiens, UniProt P05556+P13612); assay: Cell attachment PWV shift on ECM ligand coated wells; conditions: for PWV shift of attached cells: immobilized on biosensor surface
Text: For example, cells expressing α4/β1 integrin receptors, which are known to bind to fibronectin ligands, but not to collagen or laminin ligands, generate a PWV shift on fibronectin coated wells that is about 8 to 10 times greater than the PWV shift observed on collagen or laminin surfaces.

[7] = test system: rat MSC cell; assay: Rat MSC attachment to ECM-coated biosensors; conditions: ovalbumin, fibronectin, laminin or collagen biosensors
Text: In certain cases cells, such as stem cell or primary cells, have varying reactions to ligands depending upon what extracellular matrix component is present on the surface of the biosensor. This preference can be determined for each type of cell. […] The mP-M5 and mP-M4 cells show the best reaction to the ligands when they are on biosensors comprising fibronectin or collagen. […] Cells can be tested to determine the best ligand/ECM coating for attachment to the biosensor.

cells expressing α4/β1 integrin receptors, sequence (P13612 34-1032): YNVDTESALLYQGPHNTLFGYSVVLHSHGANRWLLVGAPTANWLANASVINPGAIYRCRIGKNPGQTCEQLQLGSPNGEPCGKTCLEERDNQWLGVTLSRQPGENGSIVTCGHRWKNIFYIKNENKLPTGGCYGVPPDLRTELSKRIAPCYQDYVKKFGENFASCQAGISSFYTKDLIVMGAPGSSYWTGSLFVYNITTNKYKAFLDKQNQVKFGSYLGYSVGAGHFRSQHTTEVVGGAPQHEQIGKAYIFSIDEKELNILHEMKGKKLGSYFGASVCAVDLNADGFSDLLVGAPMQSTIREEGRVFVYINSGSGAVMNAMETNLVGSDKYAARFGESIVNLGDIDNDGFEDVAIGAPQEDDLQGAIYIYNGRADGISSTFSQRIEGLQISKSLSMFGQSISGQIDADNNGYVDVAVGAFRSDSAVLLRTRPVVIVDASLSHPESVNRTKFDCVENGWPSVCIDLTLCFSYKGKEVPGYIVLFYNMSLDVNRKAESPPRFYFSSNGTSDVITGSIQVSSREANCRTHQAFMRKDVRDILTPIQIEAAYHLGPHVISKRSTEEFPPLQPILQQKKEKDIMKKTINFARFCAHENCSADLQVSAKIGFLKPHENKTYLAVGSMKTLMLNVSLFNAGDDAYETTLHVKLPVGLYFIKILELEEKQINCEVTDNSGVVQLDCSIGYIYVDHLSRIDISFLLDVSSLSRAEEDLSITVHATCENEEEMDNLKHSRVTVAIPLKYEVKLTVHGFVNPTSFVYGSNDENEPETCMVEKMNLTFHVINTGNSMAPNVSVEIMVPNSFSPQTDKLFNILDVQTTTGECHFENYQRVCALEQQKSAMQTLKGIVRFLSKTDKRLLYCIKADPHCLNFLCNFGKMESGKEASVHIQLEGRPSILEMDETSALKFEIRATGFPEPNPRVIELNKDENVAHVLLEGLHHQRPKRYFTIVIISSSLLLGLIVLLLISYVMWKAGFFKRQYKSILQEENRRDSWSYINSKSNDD
cells expressing α4/β1 integrin receptors, sequence (P05556 21-798): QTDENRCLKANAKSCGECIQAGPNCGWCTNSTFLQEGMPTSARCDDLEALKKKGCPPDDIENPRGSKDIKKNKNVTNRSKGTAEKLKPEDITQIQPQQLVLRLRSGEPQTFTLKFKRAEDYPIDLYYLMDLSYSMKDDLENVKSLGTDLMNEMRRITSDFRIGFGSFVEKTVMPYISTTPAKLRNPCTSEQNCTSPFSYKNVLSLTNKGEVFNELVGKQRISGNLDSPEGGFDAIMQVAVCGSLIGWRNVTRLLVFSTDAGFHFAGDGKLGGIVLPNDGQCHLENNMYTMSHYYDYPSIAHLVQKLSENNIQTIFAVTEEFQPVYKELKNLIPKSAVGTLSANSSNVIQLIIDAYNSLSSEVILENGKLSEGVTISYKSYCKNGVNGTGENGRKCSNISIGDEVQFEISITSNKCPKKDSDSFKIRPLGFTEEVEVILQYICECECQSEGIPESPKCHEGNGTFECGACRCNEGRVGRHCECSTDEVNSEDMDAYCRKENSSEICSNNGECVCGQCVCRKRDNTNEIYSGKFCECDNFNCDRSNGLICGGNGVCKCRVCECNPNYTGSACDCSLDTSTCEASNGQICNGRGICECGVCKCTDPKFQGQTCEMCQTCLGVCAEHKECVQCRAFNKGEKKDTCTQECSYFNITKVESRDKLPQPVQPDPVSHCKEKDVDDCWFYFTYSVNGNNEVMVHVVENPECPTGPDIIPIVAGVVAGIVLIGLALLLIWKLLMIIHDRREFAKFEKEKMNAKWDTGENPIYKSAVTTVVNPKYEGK
T1 sequence (P61073 whole entry, species assumed): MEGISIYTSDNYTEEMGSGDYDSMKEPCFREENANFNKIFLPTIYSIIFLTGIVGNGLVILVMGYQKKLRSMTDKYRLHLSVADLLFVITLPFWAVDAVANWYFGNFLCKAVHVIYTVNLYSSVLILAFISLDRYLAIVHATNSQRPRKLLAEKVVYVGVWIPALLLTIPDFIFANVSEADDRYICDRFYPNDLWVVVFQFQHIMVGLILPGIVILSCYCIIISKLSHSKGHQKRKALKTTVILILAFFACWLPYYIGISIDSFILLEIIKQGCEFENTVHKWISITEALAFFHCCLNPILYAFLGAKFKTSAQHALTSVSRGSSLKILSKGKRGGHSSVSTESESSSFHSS

Compound: SDF-1α
- Label-free cell response [1]: rapid and robust response
- Cell movement and morphology after stimulation [2]: movement of the cells is seen along with a spreading out of the cells

Compound: ET-1: ligand to which Endothelin receptor expressing cells (ETaR) respond
- Endpoint response of M4R cells to ligand [3]: not to ET-1

Compound: CN1[C@@H]2CC[C@H]1C[C@@H](OC(=O)C(CO)c1ccccc1)C2 (stereo partly drawn) [Atropine, atropine]
- Inhibition of carbachol response in M4R cells ([3]; antagonist pre-treatment 30 min, then 10uM carbachol): completely inhibited

Compound: CC(=O)OCC[N+](C)(C)C [acetylcholine]
- Fraction of mixed cell population responding [4]: Approximately 50%

Compound: C[N+](C)(C)CCOC(N)=O [carbachol]
- Endpoint response of M4R cells to ligand [3]: respond to carbachol
- Response of M4R cells to second ligand ([3]; second addition, after ET-1 stimulation): respond to carbachol, even after ET-1 stimulation
- Endpoint response of ETaR cells to ligand [5]: not to carbachol

Compound: laminin
- PWV shift of attached cells [6]: resembles background cell attachment signal

Compound: fibronectin
- PWV shift relative to collagen or laminin surfaces ([6]; coated wells): 8 to 10 times

Compound: collagen
- PWV shift of attached cells [6]: resembles background cell attachment signal
- Cell attachment compared with other surfaces [7]: better than the other surfaces

Source: US20120058507A1, “Clonal Derivation and Cell Culture quality Control Screening Methods” (SRU Biosystems, Inc., priority 2009, published 2012)
